Results on four compounds are retold here after patent USRE40851E1, “3,3-diphenylpropylamines, their use and preparation” (Pfizer Health AB, priority 1992, dated 2009).

Where a name gives a salt, the structure may show the parent alone.

In data set [1] the target is muscarinic receptor (urinary bladder). The data set can be described thus: Muscarinic receptor binding, (−)3H-QNB competition, urinary bladder homogenate. To be noted: guinea pig urinary bladder, 2 nM (−)3H-QNB, 25° C., 60 minutes. As for the experimental part: (§1) The tissue preparations and the general methods used have been described in detail elsewhere for the parotid gland^1, urinary bladder^2, heart^3 and cerebral cortex^3, respectively. Male guinea pigs (250-400 g body weight) were killed by a blow on the neck and exsanguinated. The brain was placed on ice for dissection of the cerebral cortex (grey matter only). Urinary bladders, hearts and parotid glands were dissected in a Krebs-Henseleit buffer (pH 7.4) containing 1 mM phenyl methyl sulfonyl fluoride (PMSF, a protease inhibitor). Dissected tissues were homogenized in an ice-cold sodium-potassium phosphate buffer (50 mM, pH 7.4) containing 1 mM PMSF, using a Polytron PT-10 instrument (bladder, heart, parotid) and a Potter-Elvehjem Teflon homogenizer (cortex). All homogenates were finally diluted with the ice-cold phosphate/PMSF buffer to a final protein concentration of ≦0.3 mg/ml and immediately used in the receptor binding assays. Protein was determined by the method of Lowry et al. (1951)^4, using bovine serum albumin as the standard.
(§2) The muscarinic receptor affinities of the unlabelled compounds A to D identified above were derived from competition experiments in which the ability to inhibit the receptor specific binding of (−)^3H-QNB (1-quinuclidinyl[phenyl-4-^3H]benzilate, 32.9 Ci/mmole) was monitored as previously described^3,5. Each sample contained 10 μl of (−)^3H-QNB (final concentration 2 nM), 10 μl solution of test compound and 1.0 ml tissue homogenate. Triplicate samples were incubated under conditions of equilibrium, i.e., at 25° C. for 60 minutes (urinary bladder), 80 minutes (heart and cerebral cortex) or 210 minutes (parotid gland), respectively. Non-specific binding was determined in the presence of 10 μM unlabelled atropine. Incubations were terminated by centrifugation^2, and the radioactivity in the pellets was determined by liquid scintillation spectrometry^2.
(§3) IC50-values (concentration of unlabelled compound producing 50% inhibition of the receptor specific (−)^3H-QNB binding) were graphically determined from the experimental concentration-inhibition curves. Affinities, expressed as the dissociation constants Ki, were calculated by correcting the IC50 for the radioligand-induced parallel shift and differences in receptor concentration, using the method of Jacobs et al. (1975)^6. The binding parameters for (−)^3H-QNB (KD and receptor densities) used in these calculations were determined in separate series of experiments^1-3.

For data set [2], the target named is muscarinic receptor (cerebral cortex). Put plainly: Muscarinic receptor binding, (−)3H-QNB competition, cerebral cortex homogenate. To be noted: guinea pig cerebral cortex, 2 nM (−)3H-QNB, 25° C., 80 minutes. The procedure:
as §1, §2, §3

In data set [3] the target is Smooth muscle strips of the urinary bladder (carbachol contraction). Put plainly: Functional in vitro study: antagonism of carbachol-induced contraction of urinary bladder smooth muscle strips. To be noted: guinea pig urinary bladder strips, carbachol agonist, 60 min incubation with antagonist; read-out: KH bladder. The procedure: Male guinea pigs, weighing about 300 g, were killed by a blow on the neck and exsanguinated. Smooth muscle strips of the urinary bladder were dissected in a Krebs-Henseleit solution (pH 7.4). The strip preparations were vertically mounted between two hooks in thermostatically controlled (37° C.) organ baths (5 ml). One of the hooks was adjustable and connected to a force transducer (FT 03, Grass Instruments). The Krebs-Henseleit solution was continuously bubbled with carbogen gas (93.5% O2/6.5% CO2) to maintain the pH at 7.4. Isometric tension was recorded by a Grass Polygraph (Model 79D). A resting tension of approximately 5 mN was initially applied on each muscle strip and the preparations were allowed to stabilize for at least 45 min. The resting tension was repeatedly adjusted and the preparations were washed several times during the stabilization period.
Carbachol (carbamylcholine chloride) was used as the standard agonist. In each experiment, the viability of the preparations and the reproducibility of their contractile responses were initially tested by three consecutive additions of a submaximal concentration (3×10^−6M) of carbachol. A complete concentration-response curve to carbachol was then generated by cumulative addition of carbachol to the organ-bath (i.e., stepwise increase of the agonist concentration until the maximal contractile response was reached), followed by washing out and a resting period of at least 15 min. before a fix concentration of the test compound (antagonist) was added to the organ-bath. After 60 min. of incubation with the antagonist, a second cumulative concentration-response curve to carbachol was generated. Responses were expressed as per cent of the maximal response to carbachol. EC50-values for carbachol in the absence (control) and presence of antagonist were graphically derived and dose ratios (r) were calculated. Dissociation constants, KB, for the antagonists were calculated using equation (1)^7, where [A] is the concentration of test compound. KB=[A]/r−1 (1)

A short description of data set [4]: Functional in vivo study in anaesthetized cats: blood pressure, blood flow, heart rate. To be noted: cat. The procedure:
(§4) Adult cats were anaesthetized with mebumal (42 mg/kg) intraperitoneally. When the animal was asleep, an infusion cannula was inserted into the foreleg vein and the cat was given alpha-chloralose. During the experiment the animal was placed on an operation table warmed up with a feedback controlled electric pad. The cat was tracheotomized. For blood pressure registration, a polyethylene catheter was inserted into the femoral artery, with the tip in aorta, and connected via a three-way stopcock to a blood pressure transducer and a Grass polygraph. Heart rate was registered by connecting a tachograph to a driver amplifier which received the signal from the blood pressure transducer. Blood flow in the central mesenteric artery was measured by an ultrasound flow probe around the artery connected to a transonic blood flow meter and then to a Grass polygraph for registration of the flow. For infusion of the test substances, compounds D and A (as identified above), a polyethylene catheter was inserted into the femoral vein three-way stopcock to a syringe placed in an infusion pump (Sage instrument).
Through an incision in the proximal urethra, a catheter was inserted into the urinary bladder. At the beginning of each experiment, this catheter was connected to an open vessel, which was filled with 38° C. tempered physiological saline and placed above the animal. During this stabilization period the bladder relaxed, leading to a filling of the bladder with saline, under constant hydrostatic pressure. After the stabilization period, the bladder catheter was connected to a pressure transducer, for registration of intravesical pressure. Blood pressure, heart rate, blood flow and bladder pressure were recorded simultaneously and continuously throughout the experiment. The animals were left for at least 45 minutes to achieve steady state in cardiovascular variables before starting the experiment.
Bladder pressure was measured at 8 minutes after the end of infusion of the test substance. The surgical preparation was tested by intravenous injection of 0.25 μg/kg b.w. of noradrenalin and 0.5 μg/kg b.w. of acetylcholine.
To study the dose-response relationship of compound D identified above, the substance was administered at the doses 0.000 (physiological saline), 0.003, 0.010, 0.030 and 0.100 mg/kg, respectively, with infusion during 2 minutes and an infusion volume of 1 mL/kg. Every cat got all doses and was left to reestablish at least 45 minutes between the 0.003 and 0.010 mg/kg doses, and 60 minutes between the 0.030 and 0.100 mg/kg doses.
(§5) The results are presented in absolute values and calculated as mean value±standard deviation

The subject of data set [5] is acetylcholine-induced effect on the bladder. Put plainly: Functional in vivo study in anaesthetized cats: bladder pressure. To be noted: cat, intravenous infusion. As for the experimental part: as §4, with “For infusion of the test substances, compounds D and A (as identified above), a polyethylene catheter was inserted into the femoral vein three-way stopcock to a syringe placed in an infusion pump (Sage instrument).” left out
Through an incision in the proximal urethra, a catheter was inserted into the urinary bladder. […] Blood pressure, heart rate, blood flow and bladder pressure were recorded simultaneously and continuously throughout the experiment. […]
Bladder pressure was measured at 8 minutes after the end of infusion of the test substance. […]
as §5

[6] abbreviates: intravenous, highest dose (0.3 mg/kg).

As usually defined, the Ki is a measure of affinity in units of concentration, obtained from inhibition or displacement. Read a low Ki as higher affinity. Consider `Cc1ccc(O)c(C(CCN(C(C)C)C(C)C)c2ccccc2)c1` (single isomer, unassigned; (+)) [(A), (+)N,N-diisopropyl-3-(2-hydroxy-5-methylphenyl)-3-phenylpropylamine, hydrochloride], for which the Ki was found to be 2.7 nM in data set [1] and 0.8 nM in data set [2]. Moreover, the Kd in data set [3] was 3 nM.

With `CC(C)N(CCC(c1ccccc1O)c1cc(Cl)ccc1O)C(C)C` (single isomer, unassigned; (+)) [(C), (+)N,N-diisopropyl-3-(5-chloro-2-hydroxyphenyl)-3-(2-hydroxyphenylpropylamine, hydrochloride], the figures for the Ki in data set [1] and in data set [2] were 2.5 nM and 0.4 nM, respectively. In addition, in data set [3], the Kd stood at 2.6 nM.

As to `CC(C)N(CCC(c1ccccc1O)c1ccccc1O)C(C)C` [(B), N,N-diisopropyl-3-bis-(2-hydroxyphenyl)propylamine hydrochloride], the Ki in data set [1] turned out to be 10.2 nM; in data set [2], 1.5 nM.

As for `CC(C)N(CCC(c1ccccc1)c1cc(CO)ccc1O)C(C)C` (stereo not drawn) [(D), (+)-N,N-diisopropyl-3-(2-hydroxy-5-hydroxymethylphenyl)-3-phenylpropylamine(+)mandelic acid salt], the Ki in data set [1] stood at 4.5 nM; in data set [2], 0.7 nM. The Kd in data set [3] worked out at 4.1 nM. In data set [4] (intravenous, 0,3 mg/kg), the “increase of diastolic blood pressure” value came out at 10%. Besides, in data set [4] (intravenous, 0,3 mg/kg), the “increase of systolic blood pressure” value worked out at 6%. Besides, the “increase of the blood flow in superior mesenterica artery” value worked out at 8% in data set [4] (intravenous, 0.003 mg/kg); 17% in data set [4] (intravenous, 0.01 mg/kg); 21% in data set [4] (intravenous, 0.03 mg/kg). Also, the “effect on the blood pressure” value in data set [4] (intravenous, doses other than 0,3 mg/kg) is on record as “little or no effect”. The “decrease of heart rate” value in data set [4] (setting [6]) amounted to 9%. Further, the “increase in blood flow” value in data set [4] (setting [6]) amounted to 10%. Besides, the “inhibition of the acetylcholine-induced effect on the bladder (bladder pressure)” value in data set [5] (bladder pressure 8 minutes after end of infusion) is recorded as “dose-dependent inhibition”. Also, the “efficiency of bladder pressure inhibition relative to prior art compound A” value in data set [5] (versus compound A) is “about ten times more efficient”.
